From patent publication EP2440195B1, “USE OF ALKYLGLYCEROLS FOR PREPARING DRUGS” (Université de Rennes I, priority 2009, dated 2010)

Experiments:
[1] = test system: cellules du carcinome pulmonaire de Lewis; test: Survival and tumour growth in mice grafted with Lewis lung carcinoma, five diets (alkylglycerol 18:1 and/or DFMO, normal or polyamine-deficient diet); type: in vivo, souris C57BL/6
Source text: Cette figure représente les variations de volume de tumeurs (en mm^3, indiqués en ordonnées) en fonction du nombre de jours (indiqués en abscisses) écoulés après la greffe de ladite tumeur chez des souris C57BL/6. Les souris sont greffées avec une tumeur solide de cellules du carcinome pulmonaire de Lewis.
(§1) Cette figure représente le pourcentage de survie (en ordonnées) de souris C57BL/6, en fonction du nombre de jours (en abscisses) écoulés après la greffe d'une tumeur solide de cellules du carcinome pulmonaire de Lewis. La représentation utilisée est sous forme de graphique de Kaplan-Meier, le test statistique Log-Rank est utilisé pour la comparaison de la survie (fiabilité p < 0,0001).
(§2) Des souris femelles C57BL/6, âgées de 8 semaines et pesant 20g (élevage Janvier, Le Genest St Isle, France) sont acclimatées 1 semaine avant le début de l'étude. La manipulation des animaux est réalisée en accord avec les directives éthiques pour l'expérimentation et selon les recommandations de l'Association Européenne de Recherche Biomédicale.
(§3) Les cellules de carcinome pulmonaire de Lewis (3LL) ont été obtenues auprès de l'ECACC (European collection of cell cultures) et greffées par injection intramusculaire dans les pattes postérieures de souris femelles C57BL/6 selon la méthode décrite précédemment (Hergueux J. et al., Exp. Cell Biol., 1983, 51(4), 181-191) pour produire des cellules tumorales. Après 20 jours, les cellules tumorales sont collectées et dispersées dans du PBS, comptées et diluées pour atteindre 1 ×10^6 cellules / 100 µL, avant d'être greffées dans les souris.
Le modèle animal (souris C57BL/5) et le modèle tumoral (carcinome de Lewis) sont décrits précédemment. Les souris sont greffées avec […] tumorales, par injection intramusculaire. […]

[2] = test system: cellules du carcinome pulmonaire de Lewis; test: Survival study by diet (PDD or PCD) and alkylglycerol 18:1 or olive oil, Lewis lung carcinoma graft; type: in vivo, souris C57BL/6; conditions: for différence dans la valeur de survie médiane: Log-Rank; for valeur médiane de survie: 25 mice per group
Source text: as §1, with “souris,” for “souris C57BL/6,”, “Lewis. Les souris sont réparties en 2 groupes de 25 individus. Les deux groupes sont alimentés avec des régimes alimentaires différents. Les valeurs médianes de survie sont observées.” for “Lewis.”, “survie.” for “survie (fiabilité p < 0,0001).”
as §2, §3
Au premier jour de l'expérience, 0,1 ×10^6 cellules tumorales sont greffées par injection intramusculaire, à chaque souris. Les souris greffées sont réparties aléatoirement dans les cages par groupe de 25 individus.
Quatre groupes sont constitués, chacun comprenant 25 souris greffées avec des cellules tumorales. Les souris sont réparties dans 8 cages avec 12 à 13 individus par cage. Chaque groupe de souris comprend les individus de deux cages. Chaque groupe de souris est alimenté avec un régime alimentaire différent. La consommation d'aliments est suivie deux fois par semaine, et le nombre de décès deux fois par jour.
Les quatre types de régime alimentaire sont : • régime 1, aliment synthétique appauvri en polyamines (PDD) et enrichi en huile d'olive (20 g / kg d'aliment), • régime 2, aliment synthétique appauvri en polyamines (PDD) et enrichi en alkylglycérol 18 :1 (25 mg par jour et par souris), • régime 3, aliment synthétique contenant des polyamines (PCD), enrichi en huile d'olive (20 g / kg d'aliment), • régime 4, aliment synthétique contenant des polyamines (PCD), enrichi en alkylglycérol 18 :1 (25 mg par jour et par souris).

[3] = test system: néo vascularisation induite par le Matrigel; test: Matrigel plug angiogenesis test (haemoglobin content of the gel, VEGF-induced); type: in vivo, souris C57BL/5; conditions: PDD
Method: Cette figure représente le pourcentage de concentration en hémoglobine dans du Matrigel (BD Biosciences) (en ordonnées), 10 jours après injection dudit Matrigel (500µL) à des souris.
La colonne du centre représente les souris témoins ayant été traitées avec du VEGF. Ces souris ont été greffées avec du Matrigel contenant du VEGF (50 ng/mL). Le pourcentage de concentration en hémoglobine est fixé arbitrairement à 100% et sert de référence pour quantifier les pourcentages des deux autres groupes.
La néo vascularisation induite par le Matrigel est dosée suivant une modification de la méthode de Kimura et al. (Cancer Sci. 2004, 95(9), 758-764). En résumé, tous les animaux ont été traités par injection sous-cutanée de Matrigel (500µL) contenant 32 unités/mL d'héparine et éventuellement 50 ng/mL de VEGF (Vascular Endothelial Growth Factor).
Le modèle animal (souris C57BL/5) et le Matrigel sont décrits précédemment.
Le Matrigel est injecté en sous-cutané (500 µL par injection) à trois groupes de 6 souris : • Groupe 1 : Matrigel sans VEGF, régime alimentaire appauvri en polyamines (PDD). • Groupe 2 : Matrigel avec VEGF, régime alimentaire appauvri en polyamines (PDD). • Groupe 3 : Matrigel avec VEGF, régime alimentaire appauvri en polyamines (PDD), enrichi en alkylglycérol 18 :1 (25 mg par jour et par souris)
Dix jours après injection les souris sont euthanasiées et le Matrigel est prélevé, pesé, photographié. Le Matrigel est ensuite dissocié mécaniquement dans du PBS, homogénéisé puis est mis dans une solution de Drabkin's pour le dosage de l'hémoglobine. Les solutions sont déposées dans des puits d'une plaque 96 puits contenant une solution de Drabkin's et lecture dans un lecteur de plaque à 540 nm.
La concentration en hémoglobine observe dans le Matrigel du groupe 2 est fixé arbitrairement à 100% et sert de référence lors des comparaisons avec les résultats obtenus avec les groupes 1 et 3 (Figure 8).

carcinome de Lewis = test: Antitumour agent Example 2: chemotherapy with PCD/PDD diets, DFMO and alkylglycerol C18:1, Lewis carcinoma graft; type: in vivo, souris C57BL/5
Method: Le modèle animal (souris C57BL/5) et le modèle tumoral (carcinome de Lewis) sont décrits précédemment. Les souris sont greffées avec 0,1 ×10^6 cellules tumorales, par injection intramusculaire.
Quatres ensembles d'animaux sont constitués : A, B, C et D. • L'ensemble A est traité avec une monochimiothérapie a forte dose (cyclophosphamide, 90 mg / kg / semaine). • L'ensemble B est traité avec une monochimiothérapie a faible dose (cyclophosphamide, 20 mg / kg / semaine). • L'ensemble C est traité avec une polychimiothérapie combinant trois agents antitumoraux (methotrexate, cyclophosphamide, vindesine). Le premier jour de l'expérience l'ensemble C est traité avec le methotrexate (1,7 mg / kg). Le second jour de l'expérience l'ensemble C est traité avec le cyclophosphamide (20 mg / kg). Le troisième jour de l'expérience l'ensemble C est traité avec la vindesine (0,25 mg/kg). • L'ensemble D est traité avec une solution saline (NaCl, 0,14 M), il s'agit d'un groupe témoin.
Pour chacun des 4 ensembles, les souris sont réparties en 8 groupes (soit 32 groupes au total) en fonction de leurs alimentations : • Le groupe 1a : aliment synthétique contenant des polyamines (PCD), • le groupe 1b : aliment synthétique contenant des polyamines (PCD), et avec une eau contenant du DFMO, • le groupe 1c : aliment synthétique contenant des polyamines (PCD), enrichi en alkylglycérol, • le groupe 1d : aliment synthétique contenant des polyamines (PCD), enrichi en alkylglycérol, et avec une eau contenant du DFMO, • le groupe 2a : aliment synthétique appauvri en polyamines (PDD), • le groupe 2b : aliment synthétique appauvri en polyamines (PDD), et avec une eau contenant du DFMO, • le groupe 2c : aliment synthétique appauvri en polyamines (PDD), enrichi en alkylglycérol, • le groupe 2d : aliment synthétique appauvri en polyamines (PDD), enrichi en alkylglycérol, et avec une eau contenant du DFMO,
L'alkylglycérol est le C 18 :1 (alcool sélachylique) et est mélangé à l'alimentation des souris (25 mg par jour et par souris). Le DFMO est mélangé à l'eau de boisson des souris (30 g/L). […]

[4] = régime appauvri en polyamines (PDD), alkylglycérol 18 :1 25 mg / souris / jour and/or DFMO 30 g / L in drinking water, DFMO alone given with huile d'olive
[5] = cyclophosphamide à faible dose (20 mg / kg / semaine), animaux PDD + DFMO (30 g/L)

NCCCC(N)(C(=O)O)C(F)F (racemic) [DFMO, D,L-2-(difluorométhyl)ornithine, reference compound]
valeur médiane de survie [1, 4]: 35 jours

CCCCCCCC/C=C\CCCCCCCCOCC(O)CO (stereo not shown) [alkylglycérol 18 :1, alcool sélachylique]
différence dans la valeur de survie médiane ([2]; C18 :1 (PCD, régime 4) vs huile d'olive (PCD, régime 3), Figure 4): Aucune différence significative | différence dans la valeur de survie médiane ([2]; C18 :1 (PDD, régime 2) vs C18 :1 (PCD, régime 4), Figure 7): Aucune différence significative | différence dans la valeur de survie médiane ([2]; C18 :1 (PDD, régime 2) vs huile d'olive (PCD, régime 3), Figure 5): Aucune différence significative | différence dans la valeur de survie médiane ([2]; C18 :1 (PDD, régime 2) vs huile d'olive (PDD, régime 1), Figure 3): Aucune différence significative | influence sur la durée médiane de survie ([2]; overall conclusion of the four-diet survival study): n'a pas d'influence significative | valeur médiane de survie ([2]; régime appauvri en polyamines (PDD, 10 µg / kg d'aliment), alkylglycérol 18 :1 25 mg / souris / jour or huile d'olive): 26 jours | valeur médiane de survie ([2]; régime contenant des polyamines (PCD, 128 mg / kg d'aliment), alkylglycérol 18 :1 25 mg / souris / jour): 26 jours | effet anti angiogénique ([3]; Matrigel with VEGF): observé | réduction de l'angiogénèse ([3]; Matrigel with VEGF, C18 :1 25 mg par jour et par souris, vs VEGF group): ~40% | concentration en hémoglobine dans le Matrigel ([3]; relative to VEGF group (50 ng/mL) fixed at 100%, 10 days after injection, alkylglycérol 18 :1 25 mg par jour et par souris, 6 mice): 58,56% | effect of C18 :1 intake on the benefit of chemotherapy (carcinome de Lewis; C18 :1 25 mg par jour et par souris added to chemotherapy + PDD + DFMO): amplifie les effets bénéfiques de la chimiothérapie | valeur médiane de survie [1, 4]: 30 jours | valeur médiane de survie ([1]; régime contenant un taux normal de polyamines (PCD), alkylglycérol 18 :1 25 mg / souris / jour, days after tumour graft): 31 jours

O=P1(N(CCCl)CCCl)NCCCO1 (stereo not shown) [cyclophosphamide]
dissémination métastatique pulmonaire (carcinome de Lewis; [5]): efficace | progression de la greffe tumorale (carcinome de Lewis; [5]): efficace
